This is an account of results in publication PMC3577359 (Biochemistry, 2013).

The subject of series [1] is N[C@@H](Cc1ccc(O)cc1)C(=O)O. The series can be described thus: ATP–PPi exchange kinetic parameters of AusA, A2 domain. It counts as biochemical, Staphylococcus aureus. The conditions noted are these: other: varied amino acid, non-varied ATP 3 mM; apparent; pH 8.0; 37.0 °C.
For a further series, the system named is N[C@@H](Cc1ccccc1)C(=O)O. The series is described as above. It counts as biochemical, Staphylococcus aureus. Particulars: other: varied amino acid, non-varied ATP 3 mM; apparent; pH 8.0; 37.0 °C.
Series [2] has as its system Nc1ccc(C[C@H](N)C(=O)O)cc1. Described as above. Type of series: biochemical, Staphylococcus aureus. Particulars: other: varied amino acid, non-varied ATP 3 mM; apparent; pH 8.0; 37.0 °C.
The subject of series [3] is Nc1ncnc2c1ncn2[C@@H]1O[C@H](COP(=O)(O)OP(=O)(O)OP(=O)(O)O)[C@@H](O)[C@H]1O. The series is described as above. It counts as biochemical, Staphylococcus aureus. The conditions noted are these: other: varied ATP, non-varied L-Phe 30 mM; pH 8.0; 37.0 °C.
The test system is the same in series [4]. Briefly: purified protein, by the assay type. The conditions noted are these: other: ATP varied, pH 8.0.
Another series concerns the target AusA A1/A2 (Staphylococcus aureus, UniProt A0A0H3JX00). Briefly: ATP–PPi exchange kinetic parameters of AusA, A1/A2 aggregate. It counts as biochemical.
For the next series, the target named is holo–AusA (Staphylococcus aureus, UniProt A0A0H3JX00). Particulars: for kcat/KM, fold lower than that of L-Tyr: fixed saturating L-Val, ATP, NADPH.
Series [5] concerns holo–AusA reductase domain. It counts as biochemical, Staphylococcus aureus. Particulars: for Aureusimine-A Formation kobs / NADPH Consumption kobs: ATP; for Aureusimine-A Formation kobs: LC-MS.
The target in another series is AusA A1 domain (Staphylococcus aureus, UniProt A0A0H3JX00). The series can be described thus: ATP–PPi exchange kinetic parameters of AusA, A1 domain. It counts as biochemical.
For the next series, the target named is AusA A2 domain (Staphylococcus aureus, UniProt A0A0H3JX00). Briefly: ATP–PPi exchange kinetic parameters of AusA, A2 domain. Type of series: biochemical.
The subject of another series is calpain. Particulars: cited from earlier work.
For series [6] the following is noted: cited from earlier work.
In the next series the test system is CC(C)[C@H](N)C(=O)O. Briefly: ATP–PPi exchange kinetic parameters of AusA, A1 domain. Particulars: other: varied amino acid, non-varied ATP 3 mM; apparent; pH 8.0; 37.0 °C. Type of series: biochemical, Staphylococcus aureus.
The next series concerns CC[C@H](C)[C@H](N)C(=O)O. Described as above. The conditions noted are these: other: varied amino acid, non-varied ATP 3 mM; apparent; pH 8.0; 37.0 °C. It counts as biochemical, Staphylococcus aureus.
A further series concerns the target AusA (A1–T1–C–A2–T2–R) (Staphylococcus aureus, UniProt A0A0H3JX00). It counts as biochemical.
Another series has as its target A1–T1 (Staphylococcus aureus, UniProt A0A0H3JX00). Briefly: ATP–PPi exchange assay, inhibition of A1–T1 didomain. It counts as biochemical.
The next series concerns the target A2–T2–R (Staphylococcus aureus, UniProt A0A0H3JX00). The series can be described thus: ATP–PPi exchange assay, inhibition of A2–T2–R tridomain. It counts as biochemical.
In a further series the test system is CC(C)C[C@H](N)C(=O)O. Briefly: ATP–PPi exchange kinetic parameters of AusA, A1/A2 aggregate. Particulars: other: non-varied ATP 3 mM; aggregate of A1 and A2; pH 8.0; 37.0 °C. Type of series: biochemical, Staphylococcus aureus.
[7] abbreviates: substrates L-Val, NADPH (no L-Tyr).

Where “and” joins values, the source holds several entries; their conditions need not be identical. Equal entries are not always repeated. Where two headings read alike, the source gives them in different places.

Consider “AusA A2 domain (Staphylococcus aureus subsp. aureus Mu50)”, for which the Km in [1] came to 1.0 ± 0 mM; with N[C@@H](Cc1ccccc1)C(=O)O, 2.1 ± 0.1 mM; in series [2], 31 ± 1 mM; in series [3], 3.0 ± 0.5 mM. Besides, the kcat is 2.15 ± 0.0167 s⁻¹ in [1], 0.675 ± 0.01 s⁻¹ with N[C@@H](Cc1ccccc1)C(=O)O, 1.53 ± 0.0333 s⁻¹ in series [2] and 1.05 ± 0.117 s⁻¹ in series [3]. In addition, the kcat/Km in series [1] came out at 2150 ± 17 M⁻¹ s⁻¹; in the series on N[C@@H](Cc1ccccc1)C(=O)O it was 321 ± 16 M⁻¹ s⁻¹; in series [2] it was 49 ± 2 M⁻¹ s⁻¹; in series [3], 350 ± 70 M⁻¹ s⁻¹.

For “holo–AusA (Staphylococcus aureus subsp. aureus Mu50)”, the Km in series [4] (L-Leu as the non-varied amino acid) is reported as 9.7 mM; in [4] (L-Tyr as the non-varied amino acid), 0.1 mM.

Consider `CC(C)C[C@H](N)C(=O)O` [L-Leu], for which the “kcat/KM, fold less than the best substrates” value at AusA A1/A2 was “more than 200 fold”. Also, the “kcat/KM, fold lower than that of L-Tyr” value at holo–AusA is on record as 302 fold.

For the compound `NC(=O)C1=CN([C@@H]2O[C@H](COP(=O)(O)OP(=O)(O)OC[C@H]3O[C@@H](n4cnc5c(N)ncnc54)[C@H](O)[C@@H]3O)[C@@H](O)[C@H]2O)C=CC1` [NADH], the “cofactor use by AusA” value in series [5] (data not shown) is “unable to use”.

Turning to `CC(C)c1ncc(Cc2ccc(O)cc2)[nH]c1=O` [compound 1, aureusimine-A], the “Aureusimine-A Formation kobs” value was determined as 0 min⁻¹ in [5] (substrates L-Tyr, NADPH (no L-Val)); 0 min⁻¹ in series [5] (setting [7]); 0.28 ± 0.01 min⁻¹ in series [5] (substrates L-Val, L-Tyr, NADPH, listed as Aureusimine-A); 0.28 min⁻¹ in series [5] (substrates L-Val, L-Tyr, NADPH, listed as aureusimine-A).

For `CC(C)[C@H](N)C(=O)O` [L-Val, L-Valine], the “kcat/KM, fold greater than L-Ile” value on AusA A1 domain stood at 49 fold.

`N[C@@H](Cc1ccccc1)C(=O)O` [L-Phe]: at holo–AusA, the “kcat/KM, fold lower than that of L-Tyr” value is on record as 2.8 fold.

With `Nc1ccc(C[C@H](N)C(=O)O)cc1` [L-4Aph, L-4-aminophenylalanine], on AusA A2 domain, the “decrease in kcat relative to L-Tyr” value is reported as 30% and the “increase in KM relative to L-Tyr” value is 31 fold. The “kcat/KM, fold lower than that of L-Tyr” value at holo–AusA stood at 17 fold.

For `CC(C)c1ncc(Cc2ccccc2)[nH]c1=O` [compound 2, aureusimine-B], in the series with calpain, the calpain inhibition activity is ~ 1 μM. Further, in series [6], the antibacterial activity result is “no antibacterial activity was observed”.

As for “AusA A1 domain (Staphylococcus aureus subsp. aureus Mu50)”, in the series on CC(C)[C@H](N)C(=O)O, the Km is 3.3 ± 0.1 mM, the kcat was 7.683 ± 0.05 s⁻¹ and the kcat/Km turned out to be 2330 ± 72 M⁻¹ s⁻¹. In the series on CC[C@H](C)[C@H](N)C(=O)O, the Km is on record as 11.9 ± 0.9 mM, the kcat is 0.565 ± 0.0183 s⁻¹ and the kcat/Km was 47 ± 4 M⁻¹ s⁻¹.

In the case of `CC(C)[C@H](N)C(=O)NS(=O)(=O)OC[C@H]1O[C@@H](n2cnc3c(N)ncnc32)[C@H](O)[C@@H]1O` [Val-AMS, 5′-O-[N-(valinyl)sulfamoyl]adenosine], the Ki was 44 ± 7 nM on AusA (A1–T1–C–A2–T2–R), 63 ± 5 nM at A1–T1 and 10 µM on A2–T2–R. Moreover, the “activity reduction relative to the uninhibited control” value at AusA (A1–T1–C–A2–T2–R) (100 μM Val-AMS, with L-Tyr, L-Phe, L-4Aph and L-Leu, off-target inhibition of A2) is “more than 2 fold”. Besides, the “effect on amino acid-dependent ATP–PPi exchange activity” value on AusA (A1–T1–C–A2–T2–R) (100 μM Val-AMS, with L-Val, L-Ile, L-Cle, L-Ala, L-Cys, L-Tle and L-Met) is on record as “eliminated”. In addition, at A1–T1, the “selectivity factor Ki(A2-T2-R)/Ki(A1-T1)” value came out at 158.

For “AusA A1/A2 (Staphylococcus aureus subsp. aureus Mu50)”, in the series on CC(C)C[C@H](N)C(=O)O, the Km was determined as 24 ± 3 mM; the kcat came to 0.248 ± 0.0167 s⁻¹; the kcat/Km was 10 M⁻¹ s⁻¹ and 10.3 M⁻¹ s⁻¹.

For the compound `Nc1ncnc2c1ncn2[C@@H]1O[C@H](COS(=O)(=O)NC(=O)[C@@H](N)Cc2ccccc2)[C@@H](O)[C@H]1O` [Phe-AMS, 5′-O-[N-(phenylalanyl)sulfamoyl]adenosine], the Ki at AusA (A1–T1–C–A2–T2–R) was 0.8 ± 0.5 nM; on A1–T1, more than 100000 nM; at A2–T2–R it was less than 0.004 µM. Moreover, the “effect on amino acid-dependent ATP–PPi exchange activity” value on AusA (A1–T1–C–A2–T2–R) (100 μM Phe-AMS, with L-Phe, L-4Aph, L-Tyr and L-Met) is on record as “eliminates the enzymatic activity”. In addition, on A1–T1 (up to 100 μM), the “inhibition of A1–T1” value is reported as “little inhibition”. Moreover, the “selectivity factor (A2 over A1–T1)” value at A2–T2–R is listed as > 10^4. For the same compound, in series [5] (L-Tyr reaction, data not shown), the “consumption of NADPH with the A2-specific inhibitor added” value was “not observed”.

With `CC[C@H](C)[C@H](N)C(=O)O` [L-Ile], the “exchange rate, fold lower than with L-Val” value on AusA A1 domain (in the presence of Phe-AMS) was approximately 10 fold.

With NADPH, the “NADPH Consumption kobs” value was 0 min⁻¹ in series [5] (setting [7]); 2.01 min⁻¹ and 2.01 ± 0.05 min⁻¹ in [5] (substrates L-Val, L-Tyr, NADPH, 80 nM holo–AusA, ambient temperature). This compound displayed a kobs at holo–AusA (at 0.1 mM NADPH, L-Val, L-Tyr, ATP non-varied) of 0.39 min⁻¹.
